{
  "source": "patent US20230104487A1",
  "about": "“11-(4-CHLOROPHENYL)-4-(2,3-DIHYDRO-1H-INDOLE-1-CARBONYL)-3,11-DIMETHYL-5,10,DIOXATRICYCLO[7.4.0.0,2,6,]TRIDECA-1,3,6,8-TETRAEN-13-ONE AND DERIVATIVES AS DESTABILIZER OF CRY1 FOR THE TREATMENT OF CIRCADIAN RHYTHM ASSOCIATED DISEASES AND DISORDERS” (KOC UNIVERSITESI, priority 2019, published 2023)",
  "key": {"[1]": {"system": "Dbp, Cry1, Cry2, Per2 mRNA", "experiment": "RT-qPCR of clock genes, synchronized U2-OS cells", "type": "cell-based, human", "details": "10 μM, 72-92 h", "method": "FIGS. 3A-3G are an illustration of FORMULA I decreased CRY1 level in synchronized U2-OS cells. Confluent U2-OS cells were synchronized by 2 h treatment with dexamethasone ([…]) and medium replaced with fresh medium containing FORMULA I or solvent (DMSO final 0.5%). Cells were harvested at indicated time points. FIGS. 3A-3B show lysed cells were analyzed via protein immunoblot technique. […] CRY levels in DMSO control divided by that of in FORMULA I treated samples were reported (mean±SEM, n=4). FIGS. 3C-3G show cells were subjected to reverse-transcription-quantitative polymerase chain reaction (RT-qPCR). […] Expression level of genes was normalized according to the expression level of that gene at 72ndh. (Data represent the mean±SEM, n=3 with duplicates ***: p<0.001 **: p<0.005, *: p<0.05 versus DMSO control by two-way ANOVA).\nQIAGEN RNeasy Mini Kit was used to isolate the mRNA. Protocol provided by the manufacturer was followed. […] Quantity of RNA was determined by Nanodrop 2000 (Thermo Scientific). […] For quantitative real time PCR (qRT-PCR) analysis cDNAs were further diluted 5-fold (1:5). mRNA expression levels were calculated by qRT-PCR with the SYBR Green. […] 10 seconds denaturation, 57 to 62° C. for 20 seconds annealing (the degree is determined by primer type) and 72° C. for 30 seconds of elongation, 35 cycles. […]"}, "CRY1": {"molecular_target": "T1, CRY1 (Mus musculus, UniProt P97784)", "T1 sequence (P97784 1-606)": "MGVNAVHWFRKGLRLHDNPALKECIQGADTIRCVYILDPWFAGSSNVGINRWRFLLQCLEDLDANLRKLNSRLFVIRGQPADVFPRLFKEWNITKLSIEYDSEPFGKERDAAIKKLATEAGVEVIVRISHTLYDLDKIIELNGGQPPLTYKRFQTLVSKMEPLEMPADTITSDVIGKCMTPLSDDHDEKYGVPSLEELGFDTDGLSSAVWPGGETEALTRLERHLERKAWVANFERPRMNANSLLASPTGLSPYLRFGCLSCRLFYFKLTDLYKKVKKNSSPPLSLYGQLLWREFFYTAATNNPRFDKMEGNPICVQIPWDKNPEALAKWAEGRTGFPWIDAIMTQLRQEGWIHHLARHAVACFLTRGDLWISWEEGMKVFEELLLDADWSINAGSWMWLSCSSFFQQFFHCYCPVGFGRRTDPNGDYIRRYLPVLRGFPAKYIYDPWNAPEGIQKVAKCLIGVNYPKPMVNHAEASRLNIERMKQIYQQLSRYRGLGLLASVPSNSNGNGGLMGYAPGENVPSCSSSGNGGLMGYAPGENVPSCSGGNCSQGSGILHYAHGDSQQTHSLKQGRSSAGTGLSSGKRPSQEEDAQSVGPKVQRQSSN", "experiment": "Pull-down assay with biotinylated molecule, CRY1-HIS-MYC", "type": "binding", "details": "50 μM bFORMULA I, 100 μM FORMULA I competitor", "method": "10 μg of Cry1-pcDNA4, Cry2-pcDNA4 or Cry1-T5-pcDNA4 plasmids expressing His and Myc at the C-terminal of CRYs were transfected to HEK293T cell. After 48 h of transfection cells were harvested and lysed in lysis buffer (50 mM Tris pH 7.4, 2 mM EDTA, 1 mM MgCl2, 0.2% NP-40 (v/v), 0.1% sodium deoxycholate (w/v), 1 mM sodium orthovanadate, 1 mM sodium fluoride, and protease inhibitor cocktail (Thermo Scientific)). Lysates were incubated for 10 minutes on ice then mixed gently and incubated for another 10 minutes on ice. Then lysate was centrifuged for 10 minutes at 7000 g at 4° C. 5% of the supernatant was kept for input analysis. Remaining supernatant was divided to three and mixed with 2×binding buffer (100 mM Tris-HCl pH 7.4, 300 mM NaCl, 0.2% NP-40 (v/v), 2 mM sodium orthovanadate, 2 mM sodium fluoride, and protease inhibitor) with 1:1 ratio, incubated with rotation having either of these: a) DMSO, b) biotinylated molecule, c) biotinylated molecule and the competitor for 2 h. During this period NeutrAvidin Agarose resin (Thermo Scientific) was equilibrated with lysis buffer by mixing for 5 minutes via rotation at 4° C. three times. After each mix period, resins were centrifuged at 2500 g at 4° C. for 2 minutes and supernatant was discarded. […] Pulled-down samples were analyzed via western blot."}},
  "note": "Entries after “also recorded” stand apart in the source; their conditions may differ.",
  "data": [
    {"compound": "Cc1c(C(=O)N2CCc3ccccc32)oc2ccc3c(c12)C(=O)CC(C)(c1ccc(Cl)cc1)O3", "note": "(stereo not drawn) [FORMULA I, 11-(4-chlorophenyl)-4-(2,3-dihydro-1H-indole-1-carbonyl)-3,11-dimethyl-5,10,dioxatricyclo[7.4.0.0,2,6,]trideca-1,3,6,8-tetraen-13-one]", "values": [
      {"measurement": "Dbp and Per2 mRNA levels", "setting": "[1]", "value": "Increase in clock output genes of the Dbp and Per2 mRNA levels; also recorded: increased the level of Dbp and Per2"},
      {"measurement": "peak time and abundance of Cry1, Cry2 (and Dbp) mRNA", "setting": "[1]", "value": "changed the peak time without significantly changing their overall abundance; also recorded: changed the peak time of Dbp, Cry1 and Cry2"},
      {"measurement": "physical binding to CRY1 (pull-down)", "setting": "CRY1", "value": "physically binds to CRY1; also recorded: binds to PHR of CRY1"}
    ]}
  ]
}
